Test results reported in article PMC3532118, “A Novel Muscarinic Antagonist R2HBJJ Inhibits Non-Small Cell Lung Cancer Cell Growth and Arrests the Cell Cycle in G0/G1” (PLoS ONE, 2012).
Where two headings read alike, the source gives them in different places.

Key:
[1] = test system: H1299 cells; assay: Exogenous ACh combined with R2HBJJ, cell viability (SRB)
Experimental: To determine the correlation between cholinergic signal pathways and R2HBJJ-induced growth inhibition, exogenous AChR agonist ACh was used. The effects of ACh on the growth of H1299 and on R2HBJJ-induced growth inhibition were observed.
Cells were seeded at a density of 6.0×10^3 cells/well in 96-well plates. After overnight incubation, the cells were treated with R2HBJJ (1.6–100 µM) or other antagonists (0.3–100 µM) for 72 h. The inhibitory effects of the antagonists on cell growth were determined using SRB assay, as described previously. For the combination administration, the agonist was added 1 h before R2HBJJ. Each experiment was performed in six replicates and repeated for three times. Cells treated with solvent (DMSO) were used as a control, with viability set at 100%.
(§1) GraphPad Prism 5 software was used for statistical analysis. For competition binding and Guinea-pig tracheal contraction assay, the IC50 values were determined by using the non-linear curve-fitting program. The inhibition constants (Ki values) were calculated by using the Cheng-Prusoff equation. For the experiments of exogenous ACh combined with R2HBJJ, two-way ANOVA was used to compare the interaction of two treatment factors. Post-hoc analyses were performed with Bonferroni's tests for comparisons to controls. For the cell viability assay after siRNA transfection, one-way ANOVA followed by Dunnett's t test was used. A P value of less than 0.05 was considered statistically significant.

[2] = test system: H1299 cells; assay: Cell viability assay (SRB), H1299; type: cell-based, human
Experimental: (§3) Cells were seeded at a density of 6.0×10^3 cells/well in 96-well plates. […] The inhibitory effects of the antagonists on cell growth were determined using SRB assay, as described previously [37]. […] Each experiment was performed in six replicates and repeated for three times. Cells treated with solvent (DMSO) were used as a control, with viability set at 100%.

[3] = test system: BEP2D cells; assay: Cell viability assay (SRB), BEP2D; type: cell-based; details: Homo sapiens, read-out: 50% growth-inhibitory concentration (GI50), 72 h, 100 µM highest concentration tested
Experimental: as §3

[4] = target: T1, human muscarinic receptor M5 (Homo sapiens, UniProt P08912); assay: Radioligand binding assay with [3H]NMS (saturation and competition), M5; details: mean ± SD
T1 construct: purchased Perkin Elmer Life and Analytical Sciences
T1 sequence (P08912 whole entry): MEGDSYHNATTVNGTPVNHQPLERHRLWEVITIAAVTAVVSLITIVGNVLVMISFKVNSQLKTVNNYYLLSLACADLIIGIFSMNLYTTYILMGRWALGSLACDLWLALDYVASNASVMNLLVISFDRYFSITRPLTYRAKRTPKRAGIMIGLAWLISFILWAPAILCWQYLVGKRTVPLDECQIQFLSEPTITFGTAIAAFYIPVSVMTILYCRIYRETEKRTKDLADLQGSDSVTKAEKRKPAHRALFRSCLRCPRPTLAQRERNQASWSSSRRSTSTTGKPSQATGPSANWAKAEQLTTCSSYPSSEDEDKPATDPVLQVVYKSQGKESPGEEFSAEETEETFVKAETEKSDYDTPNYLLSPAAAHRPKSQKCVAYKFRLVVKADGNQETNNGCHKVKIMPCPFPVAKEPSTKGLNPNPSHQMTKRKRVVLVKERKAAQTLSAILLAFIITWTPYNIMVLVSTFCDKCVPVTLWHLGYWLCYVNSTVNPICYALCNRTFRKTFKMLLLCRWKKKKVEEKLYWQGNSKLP
Experimental: (§2) Bound radioligand was separated from free by rapid vacuum filtration through GF/C glass fiber filters (Whatman). The filters were rinsed three times with ice cold PBS. After being dried, the fibers were placed in scintillation vials with 0.5 ml of BetaPlate Scint. Radioactivity trapped on the filters was quantified by a BECKMAN Beta counter. The assay was repeated three times with duplicate samples.
as §1

[5] = test system: A549 cells; assay: Cell viability assay (SRB), A549; type: cell-based; details: Homo sapiens, read-out: 50% growth-inhibitory concentration (GI50), A549, 72 h, 100 µM highest concentration tested
Experimental: as §3

[6] = test system: cyclin D1-CDK4/6-Rb in H1299 cells; assay: Western blot of cell cycle regulatory proteins and Rb phosphorylation; type: cell-based, human
Experimental: Cell cycle transition from G1 to S is mainly activated by two different kinase composites: cyclin D1/CDK4, 6, and cyclin E, A/CDK2. Rb is the primary substrate of cyclin D-dependent kinase and plays a key role in the network of cell cycle regulation. To investigate the underlying molecular mechanisms of G0/G1 arrest induced by R2HBJJ, the time-dependent changes of several related cell cycle regulatory molecules were evaluated after treatment with 20 µM R2HBJJ in H1299 cells by using western blot analysis. […] The decrease of Rb phosphorylated at the position of Ser^807/811 occurred as early as 3 h after treatment and before apparent cell viability change. […] Further we evaluated the concentration response of Rb phosphorylation reduced after treatment with R2HBJJ for 48 h (Fig. 8B).
Cells were harvested and subjected to lysis in the buffer X (50 mM Tris, 270 mM NaCl, 1% Triton X-100, pH 7.4). Equal amounts of lysates (30 µg) were separated on 10% SDS-PAGE and then transferred to polyvinylidene difluoride membranes (Millipore). Membranes were then blocked with PBS buffer containing 5% low fat milk and 0.1% Tween 20 (PBST) for 1 h at room temperature and then incubated with primary antibodies (1∶1000–2000) overnight at 4°C. After being washed three times with PBST, membranes were incubated with peroxidase-conjugated secondary antibodies (1∶5000) for 1 h at room temperature. The membranes were washed with PBST again and developed with a pro-light HRP chemiluminescence detection kit (TianGen Biotech, China). β-actin was used as a loading control.

[7] = target: T2, human muscarinic receptor M4 (Homo sapiens, UniProt P08173); assay: biochemical; type: binding; details: mean ± SD
T2 construct: purchased Perkin Elmer Life and Analytical Sciences
T2 sequence (P08173 whole entry): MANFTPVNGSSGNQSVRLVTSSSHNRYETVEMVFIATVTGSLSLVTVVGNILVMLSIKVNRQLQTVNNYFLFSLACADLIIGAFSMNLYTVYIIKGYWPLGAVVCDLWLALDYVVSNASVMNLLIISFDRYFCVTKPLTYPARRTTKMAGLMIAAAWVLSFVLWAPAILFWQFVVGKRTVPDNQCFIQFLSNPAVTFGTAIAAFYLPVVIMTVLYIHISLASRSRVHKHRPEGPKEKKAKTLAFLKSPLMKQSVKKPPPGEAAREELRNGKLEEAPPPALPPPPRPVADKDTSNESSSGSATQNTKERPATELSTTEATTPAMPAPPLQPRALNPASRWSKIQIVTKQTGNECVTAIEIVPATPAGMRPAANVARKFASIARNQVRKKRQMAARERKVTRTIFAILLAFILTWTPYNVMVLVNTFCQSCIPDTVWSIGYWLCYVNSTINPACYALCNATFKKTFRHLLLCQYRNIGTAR
Experimental: as §2
as §1, with “used.” for “used. A P value of less than 0.05 was considered statistically significant.”

[8] = test system: H1299 cells; assay: Cell cycle analysis by flow cytometry, H1299; type: cell-based, human; details: H1299, 20 µM
Experimental: Alterations in cell cycle were determined by using flow cytometric assay. Cells were seeded at a density of 1×10^5 cells/well in six-well plates and synchronized by plating in RPMI-1640 containing 1% FBS for 24 h. For time-dependent response, cells were incubated in 2 ml fresh RPMI-1640 containing 10% FBS with 20 µM R2HBJJ for 24, 48, 72 h. For concentration-dependent response, cells were incubated for 48 h with R2HBJJ at final concentrations of 2.5, 5, 10, 15, 20 µM in 2 ml fresh RPMI-1640 containing 10% FBS. Fresh media added in the control well simultaneously. After treatment, the cells were harvested with trypsin, washed once with PBS, and then fixed in 70% ethanol overnight at 4°C. Before flow cytometry analysis, cells were stained with 200 µg/ml Ribonuclease A and 50 µg/ml propidium iodide (Sigma) for 30 min at room temperature away from light. 1×10^4 cells per sample were analyzed using a FACSCalibur flow cytometer (BD Biosciences). Data were evaluated using Modfit software.

[9] = target: human muscarinic receptor M1 (Homo sapiens, UniProt P11229); assay: biochemical
Chain of human muscarinic receptor M1 (P11229 whole entry): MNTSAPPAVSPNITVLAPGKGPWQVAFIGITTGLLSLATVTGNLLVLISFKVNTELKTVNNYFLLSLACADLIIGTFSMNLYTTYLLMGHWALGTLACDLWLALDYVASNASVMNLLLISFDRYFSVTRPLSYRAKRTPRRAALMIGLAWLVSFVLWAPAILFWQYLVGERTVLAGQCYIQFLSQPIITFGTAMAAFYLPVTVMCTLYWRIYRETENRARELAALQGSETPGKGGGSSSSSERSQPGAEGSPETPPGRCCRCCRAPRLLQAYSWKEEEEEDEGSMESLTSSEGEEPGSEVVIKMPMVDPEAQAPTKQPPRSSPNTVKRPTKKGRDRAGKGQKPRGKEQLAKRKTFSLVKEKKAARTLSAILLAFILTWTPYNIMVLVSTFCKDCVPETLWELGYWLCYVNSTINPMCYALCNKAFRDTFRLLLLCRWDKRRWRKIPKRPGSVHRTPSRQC
Experimental: as §2, §1

[10] = target: human muscarinic receptor M3 (Homo sapiens, UniProt P20309); assay: biochemical
Chain of human muscarinic receptor M3 (P20309 whole entry): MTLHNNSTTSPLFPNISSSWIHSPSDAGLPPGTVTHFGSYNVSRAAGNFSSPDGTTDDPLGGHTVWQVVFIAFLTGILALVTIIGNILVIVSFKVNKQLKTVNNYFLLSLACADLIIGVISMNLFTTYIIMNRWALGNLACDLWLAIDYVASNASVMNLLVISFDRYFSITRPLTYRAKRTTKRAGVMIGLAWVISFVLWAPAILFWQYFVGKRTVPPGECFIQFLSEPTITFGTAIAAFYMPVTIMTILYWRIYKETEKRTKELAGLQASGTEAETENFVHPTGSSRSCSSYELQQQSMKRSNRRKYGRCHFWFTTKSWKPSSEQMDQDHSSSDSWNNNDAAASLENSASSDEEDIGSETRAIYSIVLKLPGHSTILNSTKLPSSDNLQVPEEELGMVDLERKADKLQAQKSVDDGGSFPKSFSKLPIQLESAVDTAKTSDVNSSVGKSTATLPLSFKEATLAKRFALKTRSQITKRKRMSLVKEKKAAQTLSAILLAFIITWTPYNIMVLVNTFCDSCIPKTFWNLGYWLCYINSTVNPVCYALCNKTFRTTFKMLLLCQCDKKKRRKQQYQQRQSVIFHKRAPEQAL
Experimental: as §2, §1

[11] = test system: H460 cells; assay: Cell viability assay (SRB), H460; type: cell-based; details: Homo sapiens, NCI-H460, read-out: 50% growth-inhibitory concentration (GI50), H460, 72 h
Experimental: as §3

[12] = test system: H1299 cells; assay: cells
Experimental: as §1

[13] = test system: H157 cells; assay: Cell viability assay (SRB), H157; type: cell-based; details: Homo sapiens, NCI-H157, read-out: 50% growth-inhibitory concentration (GI50), H157, 72 h
Experimental: as §3

[14] = target: T3, human muscarinic receptor M2 (Homo sapiens, UniProt P08172); assay: Radioligand binding assay with [3H]NMS (saturation and competition), M2; details: mean ± SD
T3 construct: purchased Perkin Elmer Life and Analytical Sciences
T3 sequence (P08172 whole entry): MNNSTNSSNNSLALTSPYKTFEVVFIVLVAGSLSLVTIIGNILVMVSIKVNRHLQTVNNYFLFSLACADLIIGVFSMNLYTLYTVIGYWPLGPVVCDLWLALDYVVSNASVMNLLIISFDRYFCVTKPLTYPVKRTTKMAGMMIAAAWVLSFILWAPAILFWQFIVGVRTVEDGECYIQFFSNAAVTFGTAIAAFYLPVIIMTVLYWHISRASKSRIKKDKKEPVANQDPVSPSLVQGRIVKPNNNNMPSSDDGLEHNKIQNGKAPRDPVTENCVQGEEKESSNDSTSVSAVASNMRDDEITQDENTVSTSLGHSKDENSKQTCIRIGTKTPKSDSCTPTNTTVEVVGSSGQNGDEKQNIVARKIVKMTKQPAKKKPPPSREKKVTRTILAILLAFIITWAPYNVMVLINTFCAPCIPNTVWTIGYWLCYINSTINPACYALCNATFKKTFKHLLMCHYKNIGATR
Experimental: as §2, §1

[15] = Homo sapiens, NCI-H1299, 72 h, read-out: cell viability
[16] = H1299, 72 h, SRB, antagonists 0.3–100 µM, no exogenous agonist
[17] = 2.4 nM [3H]NMS, n = 3, read-out: IC50 inhibiting [3H]NMS binding
[18] = Cheng-Prusoff, n = 3, read-out: Ki inhibiting [3H]NMS binding

## CC(=O)OCC[N+](C)(C)C [ACh, Acetylcholine, reference compound]
[1]; ACh 1, 10 and 100 µM, 72 h
  effect of exogenous ACh alone on H1299 cell growth: no significant effects on H1299 cell growth
[1]; [15]
  viability at 1 µM: 102 ± 1.8%
  viability at 10 µM: 105 ± 2.74%
  viability at 100 µM: 99 ± 2.72%

## CCN(CC)CC1CCCCN1CC(=O)N1c2ccccc2C(=O)Nc2cccnc21 (stereo not drawn) [AF-DX116]
[2]; [16]
  effect on H1299 cell proliferation: inhibition on cell proliferation at the highest concentration tested

## Br.CO[C@H]1CC=C2CCN3CCC4=C(CC(=O)OC4)[C@]23C1 [DhβE, Dihydro-β-erythroidine hydrobromide]
[2]; [16]
  effect on H1299 cell proliferation: no obvious effects on cell proliferation

## O[C@@](CO[C@H]1CN2CCC1CC2)(c1ccccc1)C1CCCC1 [R2-PHC]
[2]; H1299, 72 h, SRB
  inhibitory potency relative to darifenacin: about 3.7 fold
[2]; [16]
  effect on H1299 cell proliferation: significantly inhibited H1299 cell proliferation in a concentration-dependent manner

## O[C@@](CO[C@H]1C[N+]2(C3CC3)CCC1CC2)(c1ccccc1)C1CCCC1 [R2HBJJ]
[3]
  GI50: > 100 µM
[4]; [17]
  IC50: 1.61 nM
[4]; [18]
  Ki: 0.264 nM
[5]
  GI50: > 100 µM
[6]; H1299, 20 µM, 3–60 h
  levels of cyclin D1, CDK4 and CDK6 proteins: dramatic down-regulation
  levels of cyclin E and CDK2: remained basically unaltered
  phosphorylation of Rb (particularly at Ser807/811): decreased time-dependently
[6]; H1299, 48 h, 1.25–20 µM tested
  lowest concentration at which decrease of Rb phosphorylated at Ser807/811 occurred: 1.25 µM
[2]; H1299, 72 h, SRB
  inhibitory potency relative to darifenacin: about 3.7 fold
[2]; [16]
  effect on H1299 cell proliferation: significantly inhibited H1299 cell proliferation in a concentration-dependent manner
[2]; Homo sapiens, NCI-H1299, read-out: 50% growth-inhibitory concentration (GI50), H1299, 72 h, SRB
  GI50: 8.5 µM
[7]; [17]
  IC50: 1.47 nM
[7]; [18]
  Ki: 0.106 nM
[1]; Homo sapiens, NCI-H1299, 72 h, read-out: cell viability, R2HBJJ 10 µM, ACh 0 µM, H1299, 72 h
  viability at 10 µM: 54.1 ± 3.89%
[1]; Homo sapiens, NCI-H1299, 72 h, read-out: cell viability, R2HBJJ 20 µM, ACh 0 µM, H1299, 72 h
  viability at 20 µM: 23.2 ± 2.14%
[1]; Homo sapiens, NCI-H1299, read-out: cell viability, R2HBJJ 10 µM, ACh 1 µM added 1 h before, H1299, 72 h
  viability at 10 µM: 55 ± 6.79%
[1]; Homo sapiens, NCI-H1299, read-out: cell viability, R2HBJJ 10 µM, ACh 10 µM added 1 h before, H1299, 72 h
  viability at 10 µM: 82.3 ± 5.82%
[1]; Homo sapiens, NCI-H1299, read-out: cell viability, R2HBJJ 10 µM, ACh 100 µM added 1 h before, H1299, 72 h
  viability at 10 µM: 91.1 ± 3.65%
[1]; Homo sapiens, NCI-H1299, read-out: cell viability, R2HBJJ 20 µM, ACh 1 µM added 1 h before, H1299, 72 h
  viability at 20 µM: 24.1 ± 1.94%
[1]; Homo sapiens, NCI-H1299, read-out: cell viability, R2HBJJ 20 µM, ACh 10 µM added 1 h before, H1299, 72 h
  viability at 20 µM: 35.6 ± 4.48%
[1]; Homo sapiens, NCI-H1299, read-out: cell viability, R2HBJJ 20 µM, ACh 100 µM added 1 h before, H1299, 72 h
  viability at 20 µM: 58.5 ± 2.83%
[8]; 48 h (Fig. 7B, concentration series), control 39.60%
  percentage of G0/G1 phase: 70.01%
[8]; 72 h (Fig. 7A), control 40.35%
  percentage of G0/G1 phase: 76.60%
[8]; 72 h (Fig. 7A), control 46.14%
  percentage of S phase: 15.93%
[9]
  IC50: 0.739 nM
  Ki: 0.0786 nM
[10]
  IC50: 0.38 nM
  Ki: 0.0679 nM
[11]
  GI50: 8.8 µM
[12]; [15]
  viability at 8 µM: 83.5%
  viability at 16 µM: 57.4%
[12]; M3 siRNA treated H1299 cells, R2HBJJ 8 µM and 16 µM, 72 h
  effect on cell growth after M3 siRNA transfection: didn't further influence the cell growth
[13]
  GI50: 28.5 µM
[14]; [17]
  IC50: 5.33 nM
[14]; [18]
  Ki: 1.33 nM

## CN1[C@@H]2CC[C@H]1C[C@@H](OC(=O)C(CO)c1ccccc1)C2 (stereo partly drawn) [atropine]
[2]
  effect on H1299 cell proliferation: no obvious effects on cell proliferation

## NC(=O)C(c1ccccc1)(c1ccccc1)[C@@H]1CCN(CCc2ccc3c(c2)CCO3)C1 [darifenacin]
[2]; [16]
  effect on H1299 cell proliferation: significantly inhibited H1299 cell proliferation in a concentration-dependent manner

## CNC1(C)C2CCC(C2)C1(C)C (stereo not drawn) [mecamylamine]
[2]; [16]
  effect on H1299 cell proliferation: no obvious effects on cell proliferation

## CN1CCN(CC(=O)N2c3ccccc3C(=O)Nc3cccnc32)CC1 [pirenzepine]
[2]; [16]
  effect on H1299 cell proliferation: no obvious effects on cell proliferation

## α-bungarotoxin [α-bgt]
[2]
  effect on H1299 cell proliferation: no obvious effects on cell proliferation
